What all share (assay type): binding
For experiment [1], the target named is T1, MmTRPT1 (tRNA 2′-phosphotransferase 1) (Mus musculus, UniProt Q8K3A2).
T1 sequence (Q8K3A2 1-249): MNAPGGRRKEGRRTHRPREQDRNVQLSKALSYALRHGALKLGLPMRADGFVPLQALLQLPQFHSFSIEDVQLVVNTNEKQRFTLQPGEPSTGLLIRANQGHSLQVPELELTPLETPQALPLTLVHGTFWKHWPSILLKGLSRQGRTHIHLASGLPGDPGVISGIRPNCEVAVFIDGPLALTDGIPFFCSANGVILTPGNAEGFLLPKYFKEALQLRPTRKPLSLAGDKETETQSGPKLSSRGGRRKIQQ
The experiment in a line: crystal structure.

Experiment [2] addresses T2, HsTRPT1 (tRNA 2′-phosphotransferase 1) (Homo sapiens, UniProt Q86TN4).
T2 sequence (Q86TN4 1-253): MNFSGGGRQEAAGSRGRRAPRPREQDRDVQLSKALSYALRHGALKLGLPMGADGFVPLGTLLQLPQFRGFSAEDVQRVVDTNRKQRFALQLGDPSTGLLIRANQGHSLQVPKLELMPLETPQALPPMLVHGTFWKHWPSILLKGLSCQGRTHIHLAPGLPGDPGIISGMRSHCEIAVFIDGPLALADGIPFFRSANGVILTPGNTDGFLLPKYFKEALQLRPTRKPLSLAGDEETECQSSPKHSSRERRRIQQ
The experiment can be described thus: crystal structure.

Experiment [3] concerns the target T1, MmTRPT1 (tRNA 2′-phosphotransferase 1). The experiment in a line: ITC.
For experiment [4], the target named is T2, HsTRPT1 (tRNA 2′-phosphotransferase 1). The experiment in a line: ITC. (In general: In ITC the heat of successive injections is recorded.)
The target in experiment [5] is T3, ScTRPT1 (TPT1, tRNA 2′-phosphotransferase) (Saccharomyces cerevisiae, UniProt Q12272).
T3 sequence (Q12272 1-230): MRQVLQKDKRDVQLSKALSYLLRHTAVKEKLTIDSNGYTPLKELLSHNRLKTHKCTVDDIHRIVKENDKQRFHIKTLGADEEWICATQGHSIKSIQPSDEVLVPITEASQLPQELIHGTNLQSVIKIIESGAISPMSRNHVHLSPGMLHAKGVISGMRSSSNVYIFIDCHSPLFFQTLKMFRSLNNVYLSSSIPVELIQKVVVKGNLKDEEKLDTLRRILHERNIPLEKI
The experiment can be described thus: ITC and co-crystal structure.

The term Kd denotes the equilibrium constant for the complex coming apart. Higher therefore signals weaker binding.

With `Nc1ncnc2c1ncn2[C@@H]1O[C@H](COP(=O)(O)OP(=O)(O)OC[C@H]2O[C@H](OP(=O)(O)O)[C@H](O)[C@@H]2O)[C@@H](O)[C@H]1O` [ADPRp], the figures for the crystal structure entry in experiment [1] and in experiment [2] were “binds to the HsTRPT1/MmTRPT1 monomer” and “electron density map clearly showed that one ADPRp molecule”, respectively.
For `NC(=O)c1ccc[n+]([C@@H]2O[C@H](COP(=O)([O-])OP(=O)(O)OC[C@H]3O[C@@H](n4cnc5c(N)ncnc54)[C@H](O)[C@@H]3O)[C@@H](O)[C@H]2O)c1` [NAD^+], the results for the Kd in experiment [3], in experiment [4] and in experiment [5] were 22.3 ± 0.75 µM, 11.8 ± 0.32 µM and 23.8 ± 1.88 µM, respectively.

Source of the values: PMC10415124 (Nucleic Acids Research, 2023).
